Data as given in paper PMC9696309 (Metabolites, 2022).
Like-named read-outs stand apart in the source and are kept apart here.

Tests used:
in vitro = details: African green monkey
SARS-CoV-2 = experiment: microbe, parasite or virus in culture; type: cell-based
[1] = test system: severe acute RS-CoV 3CL^pr°; details: inhibition of severe acute RS-CoV 3CL^pr° activity; cited from earlier work

| Structure (SMILES) | CC50 (in vitro) | IC50 (SARS-CoV-2) | IC50 (SARS-CoV-2; Severe acute respiratory syndrome coronavirus 2) | IC50 [1] |
| --- | --- | --- | --- | --- |
| COc1ccc(-c2coc3cc(O)ccc3c2=O)cc1 [Compound 3, formononetin] | 1720 µM |  |  |  |
| COc1c(O)cc2oc(-c3ccc(O)cc3)c(OC)c(=O)c2c1O [Compound 7, 5,7,4’-trihydroxy-3,6-dimethoxy flavone] | 1070 µM | 664 µM | 664 µM |  |
| CC[C@H](CC[C@@H](C)[C@H]1CC[C@H]2[C@@H]3CC=C4C[C@@H](O[C@@H]5O[C@H](CO)[C@@H](O)[C@H](O)[C@H]5O)CC[C@]4(C)[C@H]3CC[C@]12C)C(C)C [Compound 9, daucosterol] | 2550 µM |  |  |  |
| O=c1cc(-c2ccc(O)cc2)oc2cc(O)cc(O)c12 [apigenin] |  |  |  | 281 µM |
| O=c1cc(-c2ccc(O)c(O)c2)oc2cc(O)cc(O)c12 [luteolin] |  |  |  | 20.2 µM |
